Test results as given in PMC4955518 (Bioorganic & medicinal chemistry, 2016).
Counter-ions that a name gives are not always drawn. Like-named read-outs stand apart in the source and are kept apart here.

How the values were obtained:
NTR2 [1] = target: T1, NTR2 (Rattus norvegicus, UniProt Q63384); details: read-out: NTR2 EC50 (off-target); cited from earlier work
T1 sequence (Q63384 1-416): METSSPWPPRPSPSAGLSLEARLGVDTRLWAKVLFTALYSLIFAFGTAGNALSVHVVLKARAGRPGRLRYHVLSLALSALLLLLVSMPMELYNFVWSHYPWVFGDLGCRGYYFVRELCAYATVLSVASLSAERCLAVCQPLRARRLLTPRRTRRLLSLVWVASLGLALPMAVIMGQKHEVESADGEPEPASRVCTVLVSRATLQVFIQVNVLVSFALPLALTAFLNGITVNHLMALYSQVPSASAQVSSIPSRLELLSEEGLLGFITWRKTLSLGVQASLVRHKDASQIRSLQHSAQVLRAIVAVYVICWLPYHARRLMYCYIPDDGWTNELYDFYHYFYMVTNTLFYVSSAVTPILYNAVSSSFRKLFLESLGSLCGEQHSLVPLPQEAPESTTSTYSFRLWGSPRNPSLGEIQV

human APJ = target: T2, human APJ (Homo sapiens, UniProt P35414); assay: Calcium mobilization assay for APJ; format: cell-based
T2 sequence (P35414 1-380): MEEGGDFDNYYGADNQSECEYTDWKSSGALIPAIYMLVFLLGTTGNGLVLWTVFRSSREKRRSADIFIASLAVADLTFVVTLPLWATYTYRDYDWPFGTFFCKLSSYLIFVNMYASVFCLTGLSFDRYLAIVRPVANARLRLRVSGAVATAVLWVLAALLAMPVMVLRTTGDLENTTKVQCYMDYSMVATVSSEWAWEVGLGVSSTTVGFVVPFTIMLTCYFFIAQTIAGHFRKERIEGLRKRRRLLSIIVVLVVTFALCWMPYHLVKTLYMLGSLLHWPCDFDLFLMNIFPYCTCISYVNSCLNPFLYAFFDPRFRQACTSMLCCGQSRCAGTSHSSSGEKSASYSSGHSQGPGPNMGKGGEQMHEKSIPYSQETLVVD

NTR2 receptor = details: read-out: NTR2 Ki (off-target); cited from earlier work
human apelin receptor = target: T3, human apelin receptor (Homo sapiens, UniProt P35414); assay: Radioligand displacement, [125I]-apelin-13, CHO-K1 cell membrane homogenates; format: binding
T3 sequence (P35414 1-380): T2 sequence (P35414 1-380)

NTR1 = NTR1 (Rattus norvegicus, UniProt P20789); assay: Calcium mobilization assay for NTR1; format: cell-based
Chain of NTR1 (P20789 whole entry): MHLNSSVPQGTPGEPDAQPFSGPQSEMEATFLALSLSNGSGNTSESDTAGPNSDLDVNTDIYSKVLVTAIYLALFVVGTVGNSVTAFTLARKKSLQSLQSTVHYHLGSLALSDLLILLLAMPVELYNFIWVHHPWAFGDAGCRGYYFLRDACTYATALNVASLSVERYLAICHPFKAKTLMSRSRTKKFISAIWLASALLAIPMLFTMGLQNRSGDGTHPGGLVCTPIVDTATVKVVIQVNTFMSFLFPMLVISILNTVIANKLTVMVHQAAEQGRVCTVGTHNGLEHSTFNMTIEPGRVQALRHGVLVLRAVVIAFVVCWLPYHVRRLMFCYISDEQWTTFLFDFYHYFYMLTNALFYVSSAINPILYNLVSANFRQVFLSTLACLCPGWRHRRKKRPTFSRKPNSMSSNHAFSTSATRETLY

NTR2 [2] = target: T1, NTR2; assay: Calcium mobilization assay for NTR2; format: cell-based

For COc1cccc(OC)c1-c1cc(C(=O)N[C@H](C(=O)O)C2CCCCC2)nn1-c1ccc(F)cc1 [Compound 1], the EC50 (NTR2 [1]) is given as 271 nM, the EC50 (human APJ; read-out: functional EC50 at APJ, calcium mobilization) is given as 21.5 ± 5 µM and the Ki (NTR2 receptor) is given as 622 nM. For the same compound, the “displacement of 125I radiolabeled pyr-apelin-13” value (human apelin receptor) was 100% and the “mode of binding at APJ” value (human apelin receptor; radioligand displacement studies) was “competitive orthosteric ligand of APJ”.

With COc1cccc(OC)c1-c1cc(C(=O)N[C@H](C(=O)O)C2CCCCC2)n(-c2ccc(F)cc2)n1 [Compound 1a, (S)-2-Cyclohexyl-2-(3-(2,6-dimethoxyphenyl)-1-(4-fluorophenyl)-1H-pyrazole-5-carboxamido)acetic acid] the “APJ agonist activity” value (human APJ; calcium mobilization) was “significantly reduce activity”.

In the case of COc1cccc(OC)c1-c1cc(C(=O)N[C@@H](C(=O)O)C2CCCCC2)nn1-c1ccc(F)cc1 [Compound 3, (R)-2-Cyclohexyl-2-(5-(2,6-dimethoxyphenyl)-1-(4-fluorophenyl)-1H-pyrazole-3-carboxamido)acetic acid], the “APJ agonist activity” value (human APJ; calcium mobilization) is reported as “significantly reduce activity”.

In the case of COC(=O)[C@@H](NC(=O)c1cc(-c2c(OC)cccc2OC)n(-c2ccc(F)cc2)n1)C1CCCCC1 [Compound 4, (S)-Methyl 2-cyclohexyl-2-(5-(2,6-dimethoxyphenyl)-1-(4-fluorophenyl)-1H-pyrazole-3-carboxamido)acetate], the “APJ agonist activity” value (human APJ; calcium mobilization) is reported as “did not possess activity”.

In the case of COc1cccc(OC)c1-c1cc(C(=O)NCC2CCCCC2)nn1-c1ccc(F)cc1 [Compound 5, N-(Cyclohexylmethyl)-5-(2,6-dimethoxyphenyl)-1-(4-fluorophenyl)-1H-pyrazole-3-carboxamide], the “APJ agonist activity” value (human APJ; calcium mobilization) is reported as “did not possess activity”.

For COc1cccc(OC)c1-c1cc(C(=O)N[C@H](C(N)=O)C2CCCCC2)nn1-c1ccc(F)cc1 [Compound 6, (S)-N-(2-Amino-1-cyclohexyl-2-oxoethyl)-5-(2,6-dimethoxyphenyl)-1-(4-fluorophenyl)-1H-pyrazole-3-carboxamide], the “APJ agonist activity” value (human APJ; calcium mobilization) was “devoid of activity”.

With COc1cccc(OC)c1-c1cc(C(=O)N[C@H](C(=O)N(C)C)C2CCCCC2)nn1-c1ccc(F)cc1 [Compound 7, (S)-N-(1-Cyclohexyl-2-(dimethylamino)-2-oxoethyl)-5-(2,6-dimethoxyphenyl)-1-(4-fluorophenyl)-1H-pyrazole-3-carboxamide] the “APJ agonist activity” value (human APJ; calcium mobilization) was “devoid of activity”.

With COc1cccc(OC)c1-c1cc(C(=O)N[C@H](C(=O)NCc2ccccc2)C2CCCCC2)nn1-c1ccc(F)cc1 [Compound 8, (S)-N-(2-(Benzylamino)-1-cyclohexyl-2-oxoethyl)-5-(2,6-dimethoxyphenyl)-1-(4-fluorophenyl)-1H-pyrazole-3-carboxamide] the “APJ agonist activity” value (human APJ; calcium mobilization) was “devoid of activity”.

With COc1cccc(OC)c1-c1cc(C(=O)N[C@H](C(=O)NO)C2CCCCC2)nn1-c1ccc(F)cc1 [Compound 9, (S)-N-(1-Cyclohexyl-2-(hydroxyamino)-2-oxoethyl)-5-(2,6-dimethoxyphenyl)-1-(4-fluorophenyl)-1H-pyrazole-3-carboxamide] the “APJ agonist activity” value (human APJ; calcium mobilization) was “not tolerated”.

For COC(=O)CNC(=O)[C@@H](NC(=O)c1cc(-c2c(OC)cccc2OC)n(-c2ccc(F)cc2)n1)C1CCCCC1 [Compound 10, (S)-Methyl 2-(2-cyclohexyl-2-(5-(2,6-dimethoxyphenyl)-1-(4-fluorophenyl)-1H-pyrazole-3-carboxamido)acetamido)acetate], the “APJ agonist activity” value (human APJ; calcium mobilization) was “inactive”.

In the case of COc1cccc(OC)c1-c1cc(C(=O)N[C@H](C(=O)NCC(=O)O)C2CCCCC2)nn1-c1ccc(F)cc1 [Compound 11, (S)-2-(2-Cyclohexyl-2-(5-(2,6-dimethoxyphenyl)-1-(4-fluorophenyl)-1H-pyrazole-3-carboxamido)acetamido)acetic acid], the “APJ agonist activity” value (human APJ; calcium mobilization) is reported as “inactive”.

In the case of O=C(N[C@H](C(=O)O)C1CCCCC1)c1cc(-c2c(O)cccc2O)n(-c2ccc(F)cc2)n1 [Compound 12, (S)-2-Cyclohexyl-2-(5-(2,6-dihydroxyphenyl)-1-(4-fluorophenyl)-1H-pyrazole-3-carboxamido)acetic acid], the “APJ agonist activity” value (human APJ; calcium mobilization) is reported as “complete loss of agonist potency”.

In the case of COc1cccc(O)c1-c1cc(C(=O)N[C@H](C(=O)O)C2CCCCC2)nn1-c1ccc(F)cc1 [Compound 13, 2-Cyclohexyl-2-(1-(4-fluorophenyl)-5-(2-hydroxy-6-methoxyphenyl)-1H-pyrazole-3-carboxamido)acetic acid], the “APJ agonist activity” value (human APJ; calcium mobilization) is reported as “loss of potency”.

In the case of Cc1cc(C(=O)N[C@H](C(=O)O)C2CCCCC2)nn1-c1ccc(F)cc1 [Compound 15, (S)-2-Cyclohexyl-2-(1-(4-fluorophenyl)-5-methyl-1H-pyrazole-3-carboxamido)acetic acid], the “APJ agonist activity” value (human APJ; calcium mobilization) is reported as “inactive”.

For COc1cccc(OC)c1-c1cc(C(=O)N[C@@H](CCC(N)=O)C(=O)O)nn1-c1ccc(F)cc1 [Compound 16, (S)-5-Amino-2-(5-(2,6-dimethoxyphenyl)-1-(4-fluorophenyl)-1H-pyrazole-3-carboxamido)-5-oxopentanoic acid], the “APJ agonist activity” value (human APJ; calcium mobilization) was “not tolerated”.

In the case of COc1cccc(OC)c1-c1cc(C(=O)N[C@@H](CCCCNC(=O)OC(C)(C)C)C(=O)O)nn1-c1ccc(F)cc1 [Compound 17, (S)-6-((Tert-butoxycarbonyl)amino)-2-(5-(2,6-dimethoxyphenyl)-1-(4-fluorophenyl)-1H-pyrazole-3-carboxamido)hexanoic acid], the “APJ agonist activity” value (human APJ; calcium mobilization) is reported as “not tolerated”.

In the case of COc1cccc(OC)c1-c1cc(C(=O)N[C@@H](CCCCN)C(=O)O)nn1-c1ccc(F)cc1 [Compound 18, (S)-6-Amino-2-(5-(2,6-dimethoxyphenyl)-1-(4-fluorophenyl)-1H-pyrazole-3-carboxamido)hexanoic acid trifluoroacetate], the “APJ agonist activity” value (human APJ; calcium mobilization) is reported as “not tolerated”.

With COc1cccc(OC)c1-c1cc(C(=O)N[C@@H](CC(C)C)C(=O)O)nn1-c1ccc(F)cc1 [Compound 19, (S)-2-(5-(2,6-Dimethoxyphenyl)-1-(4-fluorophenyl)-1H-pyrazole-3-carboxamido)-4-methylpentanoic acid] the “APJ agonist activity” value (human APJ; calcium mobilization) was “did not retain APJ potency”.

For COc1cccc(OC)c1-c1cc(C(=O)N[C@@H](CC(=O)O)C2CCCCC2)nn1-c1ccc(F)cc1 [Compound 21, (S)-3-Cyclohexyl-3-(5-(2,6-dimethoxyphenyl)-1-(4-fluorophenyl)-1H-pyrazole-3-carboxamido)propanoic acid], the EC50 (human APJ) was 9.9 ± 2.6 µM, the “NTR1 activity as agonist or antagonist” value (NTR1) was “Neither compound had any significant NTR1 activity” and the Ki (human apelin receptor) was 1400 ± 200 nM. For the same compound, the EC50 (NTR2 [2]) was roughly 345 nM, the “NTR2 functional behaviour” value (NTR2 [2]) was “partial agonists at NTR2” and the Emax (NTR2 [2]; read-out: NTR2 Emax) was 57%.

With COc1cccc(OC)c1-c1cc(C(=O)N[C@@H](CCC2CCCCC2)CC(=O)O)nn1-c1ccc(F)cc1 [Compound 22, (S)-5-Cyclohexyl-3-(5-(2,6-dimethoxyphenyl)-1-(4-fluorophenyl)-1H-pyrazole-3-carboxamido)pentanoic acid] the “APJ agonist activity” value (human APJ; calcium mobilization) was “full agonist”, the “NTR1 activity as agonist or antagonist” value (NTR1) was “Neither compound had any significant NTR1 activity” and the “NTR2 functional behaviour” value (NTR2 [2]) was “partial agonists at NTR2”.

With CCCCc1nc(Cl)c(CO)n1Cc1ccc(-c2ccccc2-c2nn[nH]n2)cc1 [losartan, reference compound] the “APJ agonist activity” value (human APJ; calcium mobilization) was “none of these analogs possessed agonist activity”.

With CCCCC(=O)N(Cc1ccc(-c2ccccc2-c2nnn[nH]2)cc1)[C@H](C(=O)O)C(C)C [valsartan, reference compound] the “APJ agonist activity” value (human APJ; calcium mobilization) was “none of these analogs possessed agonist activity”.
